# Laboratory results published in PubChem BioAssay (NCI).
#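 Method: 48-hour compound exposure of cells in 96-well plates, five concentrations, linear interpolation of endpoints. TGI is the concentration that stops growth completely.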
# System: SN12C renal
# Assay: NCI-60 cell line screen, 48 h
row,Compound,TGI [µM]
1,CCOc1cccc(C=Nc2ccccc2SSc2ccccc2N=Cc2cccc(OCC)c2O)c1O,35.7
2,Cc1c2c(cc3c1C(=O)C(=O)C([C@@H](C)CO)=C3O)C(C)(C)CCC2,> 100
3,CC[C@@]1(O)C(=O)OCc2c1cc1n(c2=O)Cc2c-1nc1ccccc1c2/C=N\NC(=O)C[n+]1ccccc1,> 69
4,Cc1[nH]c(=O)[nH]c(=O)c1/C=C/C(=O)NC(CO)CC(C)C (stereo not given),> 375
5,COc1ccc(CC2Cc3ccccc3CCN2)cc1OC (stereo not given),> 50
6,CN(C)CCn1c(=O)c2ccc(NCCNCCO)c3c(=O)c4ccccc4n(c1=O)c23,0.509
7,CN(CCC(=O)N1CC(CCl)c2ccc([N+](=O)[O-])cc21)CCC(=O)N1CC(CCl)c2ccc([N+](=O)[O-])cc21 (stereo not given),41.1
8,O=C1CC(Br)c2c(Br)sc(Br)c21 (stereo not given),29
9,[O-][n+]1nc(N2CCOCC2)nc2ccccc21,> 100
10,N=C1C(=N)c2ccccc2-c2ccccc21.[Cl-].[Ru+2].c1cnc2c(c1)ccc1cccnc12.c1cnc2c(c1)ccc1cccnc12,> 100
11,NCc1ccc(-c2ccc(CN)s2)s1,> 100
12,Cc1cccc(N/C(=C(/C(Cl)=C(Cl)Cl)[N+](=O)[O-])n2nnc3ccccc32)c1,32.9
13,CCC1CN2CCc3cc(OC)c(OC)cc3C2CC1CC1c2cc(OC)c(OC)cc2CCN1C(=O)C(N)Cc1ccccc1 (stereo not given),10.8
14,CC(=O)OC1C=C(C=O)C(O)(C=O)C2(C)CCCC(C)(C)C12 (stereo not given),5.97
15,C1C2CC3CC1CC(c1nn4c(C56CC7CC(CC(C7)C5)C6)nnc4s1)(C2)C3,> 100
16,Cc1cn(C2OC(CO[Si](C)(C)C(C)(C)C)/C(=C\C#N)C2O[Si](C)(C)C(C)(C)C)c(=O)[nH]c1=O (stereo not given),> 100
17,COc1cc2c(/C=C3/C(=O)Nc4ccc(O)cc43)c(Cl)n(Cc3ccccc3)c2cc1C,> 45.3
18,O=[N+]([O-])/C(C(Cl)=C(Cl)Cl)=C1\Nc2ccc([N+](=O)[O-])cc2N1,> 100
19,CC(C)=CCc1c(O)cc(O)c2c1OC(c1ccc(O)cc1)C(O)C2=O (stereo not given),> 100
20,Cc1ccc(-c2c(C#N)c(-c3ccccc3)n(NS(=O)(=O)c3ccc(C)cc3)c(=O)c2C#N)cc1,> 100
21,CC(C)CCCC(C)[C@H]1CC[C@H]2n3c(nnc3-c3ccccc3)CCC[C@]12C (stereo not given in full),27.5
22,CCCCCCCCCCCCCCCCP(=O)(O)OCC(N)C(=O)O (stereo not given),> 100
23,OC1=C2c3ccccc3NC2Oc2cc(F)ccc21 (stereo not given),25.9
24,NCC(Cl)C(O)c1cnc(N)[nH]1 (stereo not given),32.8

# System: IGROV1 ovarian
# Assay: NCI-60 cell line screen, 48 h
row,Compound,TGI [µM]
1,CCOc1cccc(C=Nc2ccccc2SSc2ccccc2N=Cc2cccc(OCC)c2O)c1O,15.9
2,Cc1c2c(cc3c1C(=O)C(=O)C([C@@H](C)CO)=C3O)C(C)(C)CCC2,> 100
3,CC[C@@]1(O)C(=O)OCc2c1cc1n(c2=O)Cc2c-1nc1ccccc1c2/C=N\NC(=O)C[n+]1ccccc1,> 100
4,Cc1[nH]c(=O)[nH]c(=O)c1/C=C/C(=O)NC(CO)CC(C)C (stereo not given),> 375
5,COc1ccc(CC2Cc3ccccc3CCN2)cc1OC (stereo not given),> 50
6,CN(C)CCn1c(=O)c2ccc(NCCNCCO)c3c(=O)c4ccccc4n(c1=O)c23,1.87
7,O=C1CC(Br)c2c(Br)sc(Br)c21 (stereo not given),33.5
8,[O-][n+]1nc(N2CCOCC2)nc2ccccc21,> 100
9,COc1ccc(NC(=S)Nc2cc(C)ccn2)cc1,> 100
10,N=C1C(=N)c2ccccc2-c2ccccc21.[Cl-].[Ru+2].c1cnc2c(c1)ccc1cccnc12.c1cnc2c(c1)ccc1cccnc12,72.6
11,NCc1ccc(-c2ccc(CN)s2)s1,76.3
12,CC(=O)OC1C=C(C=O)C(O)(C=O)C2(C)CCCC(C)(C)C12 (stereo not given),6.05
13,C1C2CC3CC1CC(c1nn4c(C56CC7CC(CC(C7)C5)C6)nnc4s1)(C2)C3,> 100
14,COc1cc2c(/C=C3/C(=O)Nc4ccc(O)cc43)c(Cl)n(Cc3ccccc3)c2cc1C,16.8
15,CC(C)=CCc1c(O)cc(O)c2c1OC(c1ccc(O)cc1)C(O)C2=O (stereo not given),88.9
16,Cc1ccc(-c2c(C#N)c(-c3ccccc3)n(NS(=O)(=O)c3ccc(C)cc3)c(=O)c2C#N)cc1,> 100
17,CC(C)CCCC(C)[C@H]1CC[C@H]2n3c(nnc3-c3ccccc3)CCC[C@]12C (stereo not given in full),23.4
18,CCCCCCCCCCCCCCCCP(=O)(O)OCC(N)C(=O)O (stereo not given),28.9
19,C1=C(CC2=C[P+](c3ccccc3)(c3ccccc3)C=C(c3ccccc3)O2)OC(c2ccccc2)=C[P+]1(c1ccccc1)c1ccccc1,0.43
20,OC1=C2c3ccccc3NC2Oc2cc(F)ccc21 (stereo not given),> 100
21,NCC(Cl)C(O)c1cnc(N)[nH]1 (stereo not given),4.34

# System: MCF7 breast
# Assay: NCI-60 cell line screen, 48 h
row,Compound,TGI [µM]
1,CC[C@@]1(O)C(=O)OCc2c1cc1n(c2=O)Cc2c-1nc1ccccc1c2/C=N\NC(=O)C[n+]1ccccc1,16.2
2,Cc1[nH]c(=O)[nH]c(=O)c1/C=C/C(=O)NC(CO)CC(C)C (stereo not given),> 375
3,COc1ccc(CC2Cc3ccccc3CCN2)cc1OC (stereo not given),> 50
4,CN(C)CCn1c(=O)c2ccc(NCCNCCO)c3c(=O)c4ccccc4n(c1=O)c23,3.2
5,CN(CCC(=O)N1CC(CCl)c2ccc([N+](=O)[O-])cc21)CCC(=O)N1CC(CCl)c2ccc([N+](=O)[O-])cc21 (stereo not given),23.5
6,O=C1Cc2c([nH]c3ccc(Br)cc23)-c2cc(Br)ccc2N1,> 100
7,O=C1CC(Br)c2c(Br)sc(Br)c21 (stereo not given),32.4
8,[O-][n+]1nc(N2CCOCC2)nc2ccccc21,> 100
9,COc1ccc(NC(=S)Nc2cc(C)ccn2)cc1,> 100
10,NCc1ccc(-c2ccc(CN)s2)s1,> 100
